In article PMC12514245, “Impaired migration and lung invasion of human melanoma by a novel small molecule targeting the transmembrane domain of death receptor p75^NTR” (EMBO Molecular Medicine, 2025):
Values joined by “and” are separate entries in the source; they are usually repeats but may differ in a detail not shown here. Identical values can stand only once.

Tested on: A875 NT cells
Experiment: Wound healing cell motility assay, A875 NT
Type: cell-based, human
Settings: for Wound area (Fold), Mean / Wound area (Fold), individual replicates: 10uM; for Wound area (Fold): A875 NT
Procedure: For wound healing assay, cells were grown until confluency and subjected to a wound across the cell mono-layer. Cells were then incubated with serum-free media either with DMSO or a small molecule (with or without 5 µM Q_VD_poH) and imaged at specific time-points. Cell migration is reflected as fold change in wound area over time.

`Oc1ccc(-c2cncc(Nc3ccc(Br)c(Cl)c3)n2)cc1` [Div17E5] was tested. Which “Wound area (Fold), Mean” value (9 hours) did it give?
Its value is 0.866 Fold.

What about the “Wound area (Fold), individual replicates” value (9 hours) of the same compound?
The value was 0.856 Fold and 0.878 Fold.

What about the “Wound area (Fold), Mean” value (12 hours) of the same compound?
The value was 0.895 Fold.

What about the “Wound area (Fold), individual replicates” value (12 hours) of the same compound?
The value was 0.846 Fold and 0.944 Fold.

What about the “Wound area (Fold), Mean” value (15 hours) of the same compound?
The value was 0.862 Fold.

What about the “Wound area (Fold), individual replicates” value (15 hours) of the same compound?
Its value is 0.814 Fold and 0.91 Fold.

What about the “Wound area (Fold), Mean” value (18 hours) of the same compound?
Its value is 0.863 Fold.

And the “Wound area (Fold), individual replicates” value (18 hours)?
The value was 0.826 Fold and 0.899 Fold.

What about the “Wound area (Fold), Mean” value (21 hours) of the same compound?
Its value is 0.869 Fold.

What about the “Wound area (Fold), individual replicates” value (21 hours) of the same compound?
Its value is 0.805 Fold and 0.934 Fold.

What about the “Wound area (Fold), Mean” value (24 hours) of the same compound?
The value was 0.869 Fold.

What about the “Wound area (Fold), individual replicates” value (24 hours) of the same compound?
The value was 0.812 Fold and 0.927 Fold.

And the “Wound area (Fold)” value (1uM, 0 h, Mean)?
Its value is 1.000 Fold.

What about the “Wound area (Fold)” value (1uM, 0 h, n1) of the same compound?
Its value is 1.026 Fold.

And the “Wound area (Fold)” value (1uM, 0 h, n2)?
Its value is 0.960 Fold.

What about the “Wound area (Fold)” value (1uM, 0 h, n3) of the same compound?
Its value is 1.014 Fold.

And the “Wound area (Fold)” value (1uM, 3 h, Mean)?
Its value is 0.953 Fold.

What about the “Wound area (Fold)” value (1uM, 3 h, n1) of the same compound?
The value was 0.950 Fold.

And the “Wound area (Fold)” value (1uM, 3 h, n2)?
The value was 0.945 Fold.

And the “Wound area (Fold)” value (1uM, 3 h, n3)?
Its value is 0.963 Fold.

What about the “Wound area (Fold)” value (1uM, 6 h, Mean) of the same compound?
The value was 0.896 Fold.

And the “Wound area (Fold)” value (1uM, 6 h, n1)?
The value was 0.897 Fold.

What about the “Wound area (Fold)” value (1uM, 6 h, n2) of the same compound?
Its value is 0.884 Fold.

What about the “Wound area (Fold)” value (1uM, 6 h, n3) of the same compound?
The value was 0.907 Fold.

And the “Wound area (Fold)” value (1uM, 9 h, Mean)?
Its value is 0.858 Fold.

And the “Wound area (Fold)” value (1uM, 9 h, n1)?
Its value is 0.855 Fold.

What about the “Wound area (Fold)” value (1uM, 9 h, n2) of the same compound?
The value was 0.847 Fold.

What about the “Wound area (Fold)” value (1uM, 9 h, n3) of the same compound?
The value was 0.872 Fold.

What about the “Wound area (Fold)” value (1uM, 12 h, Mean) of the same compound?
The value was 0.818 Fold.

And the “Wound area (Fold)” value (1uM, 12 h, n1)?
The value was 0.819 Fold.

What about the “Wound area (Fold)” value (1uM, 12 h, n2) of the same compound?
The value was 0.796 Fold.

And the “Wound area (Fold)” value (1uM, 12 h, n3)?
The value was 0.839 Fold.

What about the “Wound area (Fold)” value (1uM, 15 h, Mean) of the same compound?
The value was 0.788 Fold.

What about the “Wound area (Fold)” value (1uM, 15 h, n1) of the same compound?
Its value is 0.792 Fold.

And the “Wound area (Fold)” value (1uM, 15 h, n2)?
Its value is 0.758 Fold.

And the “Wound area (Fold)” value (1uM, 15 h, n3)?
The value was 0.814 Fold.

What about the “Wound area (Fold)” value (1uM, 18 h, Mean) of the same compound?
The value was 0.765 Fold.

What about the “Wound area (Fold)” value (1uM, 18 h, n1) of the same compound?
Its value is 0.775 Fold.

And the “Wound area (Fold)” value (1uM, 18 h, n2)?
The value was 0.730 Fold.

What about the “Wound area (Fold)” value (1uM, 18 h, n3) of the same compound?
Its value is 0.790 Fold.

And the “Wound area (Fold)” value (1uM, 21 h, Mean)?
The value was 0.730 Fold.

What about the “Wound area (Fold)” value (1uM, 21 h, n1) of the same compound?
Its value is 0.735 Fold.

And the “Wound area (Fold)” value (1uM, 21 h, n2)?
Its value is 0.696 Fold.

And the “Wound area (Fold)” value (1uM, 21 h, n3)?
The value was 0.758 Fold.

And the “Wound area (Fold)” value (1uM, 24 h, Mean)?
The value was 0.705 Fold.

And the “Wound area (Fold)” value (1uM, 24 h, n1)?
The value was 0.708 Fold.

And the “Wound area (Fold)” value (1uM, 24 h, n2)?
The value was 0.669 Fold.

And the “Wound area (Fold)” value (1uM, 24 h, n3)?
The value was 0.737 Fold.

And the “Wound area (Fold)” value (2uM, 0 h, Mean)?
The value was 1.000 Fold.

And the “Wound area (Fold)” value (2uM, 0 h, n1)?
The value was 0.9445 Fold.

And the “Wound area (Fold)” value (2uM, 0 h, n2)?
Its value is 1.024 Fold.

And the “Wound area (Fold)” value (2uM, 0 h, n3)?
Its value is 1.031 Fold.

And the “Wound area (Fold)” value (2uM, 3 h, Mean)?
Its value is 0.936 Fold.

And the “Wound area (Fold)” value (2uM, 3 h, n1)?
The value was 0.9336 Fold.

And the “Wound area (Fold)” value (2uM, 3 h, n2)?
Its value is 0.9313 Fold.

What about the “Wound area (Fold)” value (2uM, 3 h, n3) of the same compound?
The value was 0.9444 Fold.

And the “Wound area (Fold)” value (2uM, 6 h, Mean)?
The value was 0.874 Fold.

And the “Wound area (Fold)” value (2uM, 6 h, n1)?
The value was 0.8802 Fold.

And the “Wound area (Fold)” value (2uM, 6 h, n2)?
The value was 0.851 Fold.

And the “Wound area (Fold)” value (2uM, 6 h, n3)?
Its value is 0.8894 Fold.

And the “Wound area (Fold)” value (2uM, 9 h, Mean)?
Its value is 0.841 Fold.

And the “Wound area (Fold)” value (2uM, 9 h, n1)?
The value was 0.8687 Fold.

What about the “Wound area (Fold)” value (2uM, 9 h, n2) of the same compound?
The value was 0.7852 Fold.

And the “Wound area (Fold)” value (2uM, 9 h, n3)?
The value was 0.8693 Fold.

What about the “Wound area (Fold)” value (2uM, 12 h, Mean) of the same compound?
The value was 0.798 Fold.

What about the “Wound area (Fold)” value (2uM, 12 h, n1) of the same compound?
The value was 0.822 Fold.

What about the “Wound area (Fold)” value (2uM, 12 h, n2) of the same compound?
Its value is 0.7423 Fold.

What about the “Wound area (Fold)” value (2uM, 12 h, n3) of the same compound?
Its value is 0.8308 Fold.

And the “Wound area (Fold)” value (2uM, 15 h, Mean)?
Its value is 0.764 Fold.

What about the “Wound area (Fold)” value (2uM, 15 h, n1) of the same compound?
The value was 0.7994 Fold.

And the “Wound area (Fold)” value (2uM, 15 h, n2)?
Its value is 0.707 Fold.

And the “Wound area (Fold)” value (2uM, 15 h, n3)?
Its value is 0.7869 Fold.

What about the “Wound area (Fold)” value (2uM, 18 h, Mean) of the same compound?
The value was 0.723 Fold.

And the “Wound area (Fold)” value (2uM, 18 h, n1)?
Its value is 0.7549 Fold.

And the “Wound area (Fold)” value (2uM, 18 h, n2)?
Its value is 0.6745 Fold.

And the “Wound area (Fold)” value (2uM, 18 h, n3)?
The value was 0.7404 Fold.

And the “Wound area (Fold)” value (2uM, 21 h, Mean)?
Its value is 0.674 Fold.

What about the “Wound area (Fold)” value (2uM, 21 h, n1) of the same compound?
The value was 0.6977 Fold.

What about the “Wound area (Fold)” value (2uM, 21 h, n2) of the same compound?
The value was 0.6158 Fold.

What about the “Wound area (Fold)” value (2uM, 21 h, n3) of the same compound?
The value was 0.7086 Fold.

What about the “Wound area (Fold)” value (2uM, 24 h, Mean) of the same compound?
The value was 0.637 Fold.

And the “Wound area (Fold)” value (2uM, 24 h, n1)?
The value was 0.6671 Fold.

What about the “Wound area (Fold)” value (2uM, 24 h, n2) of the same compound?
Its value is 0.5815 Fold.

And the “Wound area (Fold)” value (2uM, 24 h, n3)?
The value was 0.6623 Fold.

And the wound healing assay (low micromolar and submicromolar concentrations)?
Its wound healing assay is “totally inactive”.
